Data taken from patent US7163946B2 (Ligand Pharmaceuticals Incorporated, priority 2002, dated 2007).
Read-outs that look alike come from different tables or passages of the source.

How the values were obtained:
Type in all cases: cell-based
hPR [1] = biological target: T1, hPR (Homo sapiens, UniProt P06401); experiment: T47D alkaline phosphatase assay, antagonist mode; conditions: T47D human breast cancer cells; for Emax: read-out: hPR Antagonists T47D Cells Eff. (%)
T1 sequence (P06401 679-933 limits assumed): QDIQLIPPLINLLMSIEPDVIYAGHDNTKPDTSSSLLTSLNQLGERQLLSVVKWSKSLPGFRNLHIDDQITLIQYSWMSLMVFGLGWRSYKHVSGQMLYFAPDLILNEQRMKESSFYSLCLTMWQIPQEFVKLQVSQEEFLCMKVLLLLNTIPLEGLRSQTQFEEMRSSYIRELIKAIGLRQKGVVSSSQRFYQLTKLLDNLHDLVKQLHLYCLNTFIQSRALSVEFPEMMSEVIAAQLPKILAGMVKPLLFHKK

hPR [2] = biological target: T2, hPR (Homo sapiens, UniProt P06401); experiment: hPR cotransfection assay in CV-1 cells, agonist mode; conditions: for Emax: CV-1, CV-1 cells, read-out: hPR Agonist CV-1 Cells Eff. (%); for EC50: Tables 3 and 4, values without footnote
T2 sequence (P06401 1-933): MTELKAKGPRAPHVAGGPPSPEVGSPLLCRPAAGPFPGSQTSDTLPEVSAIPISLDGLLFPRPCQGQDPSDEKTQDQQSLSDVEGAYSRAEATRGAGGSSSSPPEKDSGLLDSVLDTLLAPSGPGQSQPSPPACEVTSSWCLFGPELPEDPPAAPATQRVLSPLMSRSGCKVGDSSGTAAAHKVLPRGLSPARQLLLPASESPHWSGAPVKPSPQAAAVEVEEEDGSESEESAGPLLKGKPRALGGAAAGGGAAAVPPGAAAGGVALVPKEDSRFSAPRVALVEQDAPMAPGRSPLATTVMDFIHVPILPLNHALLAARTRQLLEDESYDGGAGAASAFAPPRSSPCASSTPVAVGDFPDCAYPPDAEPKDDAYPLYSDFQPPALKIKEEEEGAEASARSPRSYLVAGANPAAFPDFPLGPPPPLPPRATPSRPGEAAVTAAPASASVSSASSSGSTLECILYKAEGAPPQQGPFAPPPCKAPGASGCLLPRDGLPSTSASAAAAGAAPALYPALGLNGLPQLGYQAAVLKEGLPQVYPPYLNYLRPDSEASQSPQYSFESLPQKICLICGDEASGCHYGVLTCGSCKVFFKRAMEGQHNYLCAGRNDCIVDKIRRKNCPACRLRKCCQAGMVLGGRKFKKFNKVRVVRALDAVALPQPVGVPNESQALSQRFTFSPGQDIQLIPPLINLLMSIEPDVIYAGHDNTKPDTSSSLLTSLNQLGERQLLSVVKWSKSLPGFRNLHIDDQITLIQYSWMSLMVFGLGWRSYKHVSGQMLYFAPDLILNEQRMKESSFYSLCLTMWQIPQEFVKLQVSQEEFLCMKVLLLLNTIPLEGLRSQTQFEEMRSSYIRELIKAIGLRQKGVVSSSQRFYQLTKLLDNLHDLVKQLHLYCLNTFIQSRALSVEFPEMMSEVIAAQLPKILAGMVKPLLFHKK

hPR [3] = biological target: T2, hPR; experiment: hPR cotransfection assay in CV-1 cells, antagonist mode; conditions: maximal inhibition of reference agonist at EC50 concentration; for Emax: CV-1, CV-1 cells, read-out: hPR Antagonist CV-1 Cells Eff. (%)
hPR [4] = biological target: T1, hPR; experiment: T47D alkaline phosphatase assay, agonist mode; conditions: T47D human breast cancer cells; for Emax: T47D, read-out: hPR Agonist T47D cells Eff. (%)
[5] = relative to maximal response of progesterone as 100%
[6] = read-out: hPR agonist potencies (EC50 in nM) in the cotransfection assay
[7] = hPR agonist potencies (EC50 in nM) in the cotransfection assay

EC50 (hPR [2]; [6]) [nM]	SMILES	other results
–	CC(=O)[C@H]1CC[C@H]2[C@@H]3CCC4=CC(=O)CC[C@]4(C)[C@H]3CC[C@]12C [Prog., progesterone, reference compound]	Emax (hPR [1]): < 20%; Emax (hPR [2]; [5]): 100%; Emax (hPR [3]): < 20%; Emax (hPR [4]): 100%
–	CC(=O)O[C@]1(C(C)=O)CC[C@H]2[C@@H]3C[C@H](C)C4=CC(=O)CC[C@]4(C)[C@H]3CC[C@@]21C [MPA, reference compound]	hPR Antagonists T47D Cells Eff. (%) (hPR [1]): na (na = not active (i.e. efficacy of <20 and potency of >10,000)); hPR Agonist CV-1 Cells Eff. (%) (hPR [2]; CV-1 cells, relative to maximal response of progesterone as 100%): 88%; hPR Antagonist CV-1 Cells Eff. (%) (hPR [3]; CV-1 cells): na (na = not active (i.e. efficacy of <20 and potency of >10,000)); hPR Agonist T47D cells Eff. (%) (hPR [4]): 114%
–	CN(C)c1ccc([C@H]2C[C@]3(C)[C@@H](CC[C@]3(O)CCCO)[C@@H]3CCC4=CC(=O)CCC4=C32)cc1 [ZK299, reference compound]	Emax (hPR [1]): 86%; Emax (hPR [2]; [5]): < 20%; Emax (hPR [3]): 99%; Emax (hPR [4]): < 20%
10	CC1=CC(C)(C)Nc2ccc3c(c21)/C(=C/c1cc(F)ccc1F)Oc1cc(O)ccc1-3 [Formula II X=8-OH 2,5-diF-Ph, reference compound]	–
1.6	CC1=CC(C)(C)Nc2ccc3c(c21)C(c1cccc(C(F)(F)F)c1)Oc1c(F)cc(F)cc1-3 (racemic) [Compound 56, (±)-7,9-difluoro-5-[3-(trifluoromethyl)phenyl]-1,2-dihydro-2,2,4-trimethyl-5H-chromeno[3,4-f]quinoline]	–
5.5	COc1ccc2c(c1)O/C(=C\c1ccccc1)c1c-2ccc2c1C(C)=CC(C)(C)N2 [Formula II X=8-OMe Phenyl, reference compound]	–
–	CC1=CC(C)(C)Nc2ccc3c(c21)C(c1ccc(Cl)c(C)c1)Oc1ccc(C)cc1-3 (stereo not drawn) [Formula I X=9-Me 4-Cl-3-Me-Ph, reference compound]	EC50 (hPR [2]; [7]): 7.45 nM
3.5	COc1ccc2c(c1)O/C(=C\c1ccccc1C)c1c-2ccc2c1C(C)=CC(C)(C)N2 [Formula II X=8-OMe 2-Me-Ph, reference compound]	–
–	C[C@]12CCC(=O)C=C1[C@@H]1C[C@@H]1[C@H]1[C@@H]3[C@@H]4C[C@@H]4[C@@]4(CCC(=O)O4)[C@@]3(C)CC[C@@H]12 [Drospirenone, reference compound]	Emax (hPR [1]): < 20%; Emax (hPR [2]; [5]): 87%; Emax (hPR [3]): < 20%; Emax (hPR [4]): 117%
7.95	CC1=CC(C)(C)Nc2ccc3c(c21)/C(=C/c1cccc(F)c1)Oc1ccc(C)cc1-3 [Formula II X=9-Me 3-F-Ph, reference compound]	–
–	C#C[C@]1(O)CC[C@H]2[C@@H]3CCC4=CC(=O)CC[C@@H]4[C@H]3CC[C@@]21CC [Levonorgestrel, reference compound]	Emax (hPR [1]): < 20%; Emax (hPR [2]; [5]): 216%; Emax (hPR [3]): < 20%; Emax (hPR [4]): 96%
48	CC1=CC(C)(C)Nc2ccc3c(c21)C(c1ccc2c(c1)OCO2)Oc1ccccc1-3 (stereo not drawn) [Formula I X=H Benzodioxol-5-yl, reference compound]	–
6.2	CC1=CC(C)(C)Nc2ccc3c(c21)/C(=C/c1ccccc1)Oc1c(Cl)cccc1-3 [Formula II X=7-Cl Phenyl, reference compound]	–
11.5	COc1ccc(F)cc1/C=C1\Oc2ccc(O)cc2-c2ccc3c(c21)C(C)=CC(C)(C)N3 [Formula II X=9-OH 2-MeO-5-F-Ph, reference compound]	–
18	CC1=CC(C)(C)Nc2ccc3c(c21)/C(=C/c1cccs1)Oc1ccc(F)cc1-3 [Formula II X=9-F 2-Thienyl, reference compound]	–
3	CC1=CC(C)(C)Nc2ccc3c(c21)/C(=C/c1cc(F)ccc1F)Oc1ccc(F)cc1-3 [Formula II X=9-F 2,5-diF-Ph, reference compound]	–
3.65	CC1=CC(C)(C)Nc2ccc3c(c21)C(c1cccc(Br)c1)Oc1c(F)cc(F)cc1-3 (racemic) [Compound 42, (±)-7,9-difluoro-5-(3-bromophenyl)-1,2-dihydro-2,2,4-trimethyl-5H-chromeno[3,4-f]quinoline]	–

EC50 (hPR [2]; [6]) [nM]	SMILES	other results
–	CC1=CC(C)(C)Nc2ccc3c(c21)C(C)Oc1c(F)cc(F)cc1-3 (racemic) [Compound 44, (±)-7,9-difluoro-1,2-dihydro-2,2,4,5-tetramethyl-5H-chromeno[3,4-f]quinoline]	EC50 (hPR [2]; [7]): 1.4 nM
15	CCCCC1Oc2c(F)cc(F)cc2-c2ccc3c(c21)C(C)=CC(C)(C)N3 (racemic) [Compound 52, (±)-7,9-difluoro-5-butyl-1,2-dihydro-2,2,4-trimethyl-5H-chromeno[3,4-f]quinoline]	–
3.95	CC1=CC(C)(C)Nc2ccc3c(c21)/C(=C/c1cc(F)ccc1C)Oc1cc(F)c(F)cc1-3 [Formula II X=8,9-diF 2-Me-5-F-Ph, reference compound]	–
> 1000	COc1ccc2c(c1)O/C(=C\c1ccccc1Cl)c1c-2ccc2c1C(C)=CC(C)(C)N2 [Formula II X=8-OMe 2-Cl-Ph, reference compound]	–
13	CC1=CC(C)(C)Nc2ccc3c(c21)/C(=C/c1ccccc1C)Oc1cc(F)c(F)cc1-3 [Formula II X=8,9-diF 2-Me-Ph, reference compound]	–
67	COc1ccc2c(c1)-c1ccc3c(c1/C(=C/c1ccccc1)O2)C(C)=CC(C)(C)N3 [Formula II X=9-OMe Phenyl, reference compound]	–
2.6	CC1=CC(C)(C)Nc2ccc3c(c21)/C(=C/c1cc(F)ccc1C)Oc1ccccc1-3 [Formula II X=H 2-Me-5-F-Ph, reference compound]	–
11	COc1ccc2c(c1)-c1ccc3c(c1C(c1cccc(C)c1)O2)C(C)=CC(C)(C)N3 (stereo not drawn) [Formula I X=9-OMe 3-Me-Ph, reference compound]	–
187	CC1=CC(C)(C)Nc2ccc3c(c21)/C(=C/c1ccccc1)Oc1cc(F)ccc1-3 [Formula II X=8-F Phenyl, reference compound]	–
8.2	CC1=CC(C)(C)Nc2ccc3c(c21)/C(=C/c1cccc(F)c1C)Oc1c(F)cc(F)cc1-3 [Compound 21, 7,9-difluoro-5(Z)-(2-methyl-3-fluorobenzylidene)-1,2-dihydro-2,2,4-trimethyl-5H-chromeno[3,4-f]quinoline]	–
12	CC1=CC(C)(C)Nc2ccc3c(c21)/C(=C/c1ccccc1Cl)Oc1ccc(F)cc1-3 [Formula II X=9-F 2-Cl-Ph, reference compound]	–
25	CC1=CC(C)(C)Nc2ccc3c(c21)/C(=C/c1cc(F)ccc1F)Oc1ccc(Cl)cc1-3 [Formula II X=9-Cl 2,5-diF-Ph, reference compound]	–
5.25	CC1=CC(C)(C)Nc2ccc3c(c21)/C(=C/c1ccccc1)Oc1ccc(F)cc1-3 [Formula II X=9-F Phenyl, reference compound]	–
3.85	CC1=CC(C)(C)Nc2ccc3c(c21)C(c1ccc2c(c1)OCO2)Oc1c(F)cc(F)cc1-3 (racemic) [Compound 35, (±)-7,9-difluoro-5-(1,3-benzodioxol-5-yl)-1,2-dihydro-2,2,4-trimethyl-5H-chromeno[3,4-f]quinoline]	–
1.92	CC1=CC(C)(C)Nc2ccc3c(c21)/C(=C/c1ccccc1Cl)Oc1c(F)cc(F)cc1-3 [Compound 13, 7,9-difluoro-5(Z)-(2-chlorobenzylidene)-1,2-dihydro-2,2,4-trimethyl-5H-chromeno[3,4-f]quinoline]	–
6.66	CC1=CC(C)(C)Nc2ccc3c(c21)C(c1cccc(F)c1)Oc1c(F)cc(F)cc1-3 (racemic) [Compound 40, (±)-7,9-difluoro-5-(3-fluorophenyl)-1,2-dihydro-2,2,4-trimethyl-5H-chromeno[3,4-f]quinoline]	–
